Results from article PMC7377239, “Cardiovascular Effects of Polychlorinated Biphenyls and Their Major Metabolites” (Environmental Health Perspectives, 2020).
Where a name gives a salt, the structure may show the parent alone. Read-outs that look alike come from different tables or passages of the source.

What was measured:
HUVECs = test: High-content imaging cytotoxicity in HUVECs, 24 h; assay type: cell-based, human; conditions: Homo sapiens, HUVEC, 24 h, HUVEC, 24 hr
How it was run: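 Point-of-departure values derive from four-parameter logistic fits of vehicle-normalized imaging phenotypes (Hoechst 33342, MitoTracker Orange, calcein AM). The fits follow 24 h exposure of HUVEC monolayers at 37°C and 5% CO2, with a top tested concentration of 100μM.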

[1] = tested on: iCell cardiomyocytes (human iPSC-derived cardiomyocytes); test: High-content imaging of cytotoxicity and mitochondrial integrity in iPSC-CMs; assay type: cell-based; conditions: Homo sapiens, Cardiomyocyte, cardiomyocytes (cm)
How it was run: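 Readouts from high-content images were normalized to vehicle controls containing 0.5% vol/vol DMSO. They were fit to a four-parameter logistic model in R. Points of departure were set using a cutoff of one standard deviation across vehicle control means. Where no concentration–response was seen, the top tested concentration of 100μM was assigned as the no observable adverse effect level.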

`O=S(=O)(O)Oc1cc(-c2ccccc2)ccc1Cl` [3-PCB 3 sulfate] showed a minimal effective concentration (HUVECs; cyto, read-out: POD huvec.cyto.24hr) of 100 µM, a minimal effective concentration (HUVECs; mito, read-out: POD huvec.mito.24hr) of 100 µM and a minimal effective concentration (HUVECs; mitoint, read-out: POD huvec.mitoint.24hr) of 100 µM. The minimal effective concentration (HUVECs; nma, read-out: POD huvec.nma.24hr) was 100 µM, the minimal effective concentration (HUVECs; tc, read-out: POD huvec.tc.24hr) was 100 µM and the minimal effective concentration ([1]; 1.5 h, cam, 90 min, read-out: POD cm.cam.90min) was 100 µM. The minimal effective concentration ([1]; 1.5 h, mii, 90 min, read-out: POD cm.mii.90min) was 100 µM, the minimal effective concentration ([1]; 1.5 h, mito, 90 min, read-out: POD cm.mito.90min) was 100 µM and the minimal effective concentration ([1]; 1.5 h, tc, 90 min, read-out: POD cm.tc.90min) was 100 µM. It also gave a minimal effective concentration ([1]; 24 h, cam, 24 hrs, read-out: POD cm.cam.24hrs) of 100 µM, a minimal effective concentration ([1]; 24 h, mii, 24 hrs, read-out: POD cm.mii.24hrs) of 22.8 µM and a minimal effective concentration ([1]; 24 h, mito, 24 hrs, read-out: POD cm.mito.24hrs) of 100 µM. The minimal effective concentration ([1]; 24 h, tc, 24 hrs, read-out: POD cm.tc.24hrs) was 100 µM.
